Test results reported in US8962549B2, “Polymeric benzyl carbonate-derivatives” (Baxter International Inc., priority 2008, dated 2015).

Assay: Release of tryptophan from PEG-tryptophan: incubation in cleavage buffer at 37° C., HPLC analysis
Assay type: physicochemical
Conditions: detection at 280 nm
Experimental: A 0.10 mL aliquot of the PEGylated tryptophan reaction solution from Example 7 was diluted with 0.60 mL PBS buffer (0.10 M, NaCl, 0.10 M, Glycine 0.10M, pH 7.5) and incubated at 37° C. in an oven. Aliquots of 0.10 mL were withdrawn at incubation intervals of 2, 7, 32 and 102 hours, and were quenched with 10 μl of HCl (1.0 N diluted with 0.4 mL 20% acetonitrile containing 0.01% trifluoroacetic acid) for HPLC analysis (0.10 mL injection).
The above procedure was repeated using a cleavage solution with a pH of 8.5 and incubation intervals of 1, 6, 24, and 32 hours.
Both the PEG-tryptophan (Example 7) and cleavage samples were analyzed on C-18 reversed-phase HPLC with detection at 280 nm. The HPLC conditions are the following: C-18 column (Waters Symmetry, 4.6×250 mm), flow rate of 1.0 mL/min, gradient of acetonitrile 20% to 80% over 15 minutes followed by 10 minutes of washing at 80% acetonitrile (all contain 0.01% trifluoroacetic acid).

For N[C@@H](Cc1c[nH]c2ccccc12)C(=O)O [Tryptophan], the “contents (HPLC integration area) of cleavage reaction” value (“contents (HPLC integration area)” below) (pH 7.5 PBS with glycine 0.10 M, incubation time 2 hours) was 596, the “contents (HPLC integration area)” value (pH 7.5 PBS with glycine 0.10 M, incubation time 7 hours) was 647 and the “contents (HPLC integration area)” value (pH 7.5 PBS with glycine 0.10 M, incubation time 32 hours) was 1329. For the same molecule, the “contents (HPLC integration area)” value (pH 7.5 PBS with glycine 0.10 M, incubation time 102 hours) was 2955, the “contents (HPLC integration area)” value (pH 8.5 cleavage solution, incubation time 1 hour) was 735 and the “contents (HPLC integration area)” value (pH 8.5 cleavage solution, incubation time 6 hours) was 1183. The “contents (HPLC integration area)” value (pH 8.5 cleavage solution, incubation time 24 hours) was 2442 and the “contents (HPLC integration area)” value (pH 8.5 cleavage solution, incubation time 32 hours) was 2498.
